Measured values: US20110152313A1 (MACQUARIE UNIVERSITY, priority 2008, published 2011)

What was measured:
Assay in all cases: kinase binding constant, 11-point dose response (T7 phage, qPCR)
Settings in all cases: >30 = no inhibition at highest concentration tested
[1] = molecular target: T1, CDKL5 (Homo sapiens, UniProt O76039)
T1 sequence (O76039 1-960): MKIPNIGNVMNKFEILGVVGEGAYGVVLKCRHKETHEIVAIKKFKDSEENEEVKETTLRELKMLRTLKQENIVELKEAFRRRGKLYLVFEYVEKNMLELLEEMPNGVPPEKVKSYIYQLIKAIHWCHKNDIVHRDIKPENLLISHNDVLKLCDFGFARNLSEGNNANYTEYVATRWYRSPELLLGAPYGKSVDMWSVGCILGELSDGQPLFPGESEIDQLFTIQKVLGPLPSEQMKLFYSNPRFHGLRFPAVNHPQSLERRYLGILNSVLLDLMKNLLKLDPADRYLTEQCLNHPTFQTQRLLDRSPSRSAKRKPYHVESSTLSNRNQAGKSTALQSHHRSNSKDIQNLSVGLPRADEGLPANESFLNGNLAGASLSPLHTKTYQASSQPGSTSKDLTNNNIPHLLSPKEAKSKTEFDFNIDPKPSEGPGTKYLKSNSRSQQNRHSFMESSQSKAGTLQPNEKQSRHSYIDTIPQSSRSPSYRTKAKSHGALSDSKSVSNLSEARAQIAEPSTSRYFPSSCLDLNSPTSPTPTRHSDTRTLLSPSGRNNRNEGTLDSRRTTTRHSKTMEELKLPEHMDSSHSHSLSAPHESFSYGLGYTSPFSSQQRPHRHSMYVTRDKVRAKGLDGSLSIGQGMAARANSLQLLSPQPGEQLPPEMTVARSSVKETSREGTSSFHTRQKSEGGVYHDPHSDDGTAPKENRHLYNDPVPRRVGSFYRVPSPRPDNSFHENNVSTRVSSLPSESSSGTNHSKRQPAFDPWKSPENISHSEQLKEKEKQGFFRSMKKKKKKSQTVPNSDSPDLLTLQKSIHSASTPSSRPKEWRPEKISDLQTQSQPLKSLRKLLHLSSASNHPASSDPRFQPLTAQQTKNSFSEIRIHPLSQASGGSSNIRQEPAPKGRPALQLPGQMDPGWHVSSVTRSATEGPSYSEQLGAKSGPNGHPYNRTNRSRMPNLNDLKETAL
Experimental: (§1) Kinase inhibition studies were performed by methods well known in the prior art (Fabian, M. A. et al. Nat. Biotechnol. 2005, 23, 329). Briefly, kinase-tagged T7 phage strains were prepared in an E. coli host derived from the BL21 strain. E. coli were grown to log-phase and infected with T7 phage and incubated with shaking at 32° C. until lysis. The lysates were centrifuged and filtered to remove cell debris. […] The liganded beads were blocked with excess biotin and washed with blocking buffer (SeaBlock (Pierce); 1% BSA, 0.05% Tween 20, 1 mM DTT) to remove unbound ligand and to reduce non-specific binding. […] All reactions were performed in polystyrene 96-well plates in a final volume of 0.135 ml. […] The kinase concentration in the eluates was measured by qPCR.
(§2) An 11-point 3-fold serial dilution of each test compound (from 30 μM to 0.5 nM) was prepared in 100% DMSO at 100× final test concentration and subsequently diluted to 1× in the assay (final DMSO concentration=1%). Binding constants (KDS) were calculated with a standard dose-response curve using a 5-point sigmoidal (Hill) equation.

[2] = molecular target: CAMK2G (Homo sapiens, UniProt Q13555)
Experimental: as §1, §2

[3] = molecular target: CAMKK1 (Homo sapiens, UniProt Q8N5S9)
Experimental: as §1, §2

[4] = molecular target: T2, YSK4 (Homo sapiens, UniProt Q56UN5)
T2 sequence (Q56UN5 1-1328): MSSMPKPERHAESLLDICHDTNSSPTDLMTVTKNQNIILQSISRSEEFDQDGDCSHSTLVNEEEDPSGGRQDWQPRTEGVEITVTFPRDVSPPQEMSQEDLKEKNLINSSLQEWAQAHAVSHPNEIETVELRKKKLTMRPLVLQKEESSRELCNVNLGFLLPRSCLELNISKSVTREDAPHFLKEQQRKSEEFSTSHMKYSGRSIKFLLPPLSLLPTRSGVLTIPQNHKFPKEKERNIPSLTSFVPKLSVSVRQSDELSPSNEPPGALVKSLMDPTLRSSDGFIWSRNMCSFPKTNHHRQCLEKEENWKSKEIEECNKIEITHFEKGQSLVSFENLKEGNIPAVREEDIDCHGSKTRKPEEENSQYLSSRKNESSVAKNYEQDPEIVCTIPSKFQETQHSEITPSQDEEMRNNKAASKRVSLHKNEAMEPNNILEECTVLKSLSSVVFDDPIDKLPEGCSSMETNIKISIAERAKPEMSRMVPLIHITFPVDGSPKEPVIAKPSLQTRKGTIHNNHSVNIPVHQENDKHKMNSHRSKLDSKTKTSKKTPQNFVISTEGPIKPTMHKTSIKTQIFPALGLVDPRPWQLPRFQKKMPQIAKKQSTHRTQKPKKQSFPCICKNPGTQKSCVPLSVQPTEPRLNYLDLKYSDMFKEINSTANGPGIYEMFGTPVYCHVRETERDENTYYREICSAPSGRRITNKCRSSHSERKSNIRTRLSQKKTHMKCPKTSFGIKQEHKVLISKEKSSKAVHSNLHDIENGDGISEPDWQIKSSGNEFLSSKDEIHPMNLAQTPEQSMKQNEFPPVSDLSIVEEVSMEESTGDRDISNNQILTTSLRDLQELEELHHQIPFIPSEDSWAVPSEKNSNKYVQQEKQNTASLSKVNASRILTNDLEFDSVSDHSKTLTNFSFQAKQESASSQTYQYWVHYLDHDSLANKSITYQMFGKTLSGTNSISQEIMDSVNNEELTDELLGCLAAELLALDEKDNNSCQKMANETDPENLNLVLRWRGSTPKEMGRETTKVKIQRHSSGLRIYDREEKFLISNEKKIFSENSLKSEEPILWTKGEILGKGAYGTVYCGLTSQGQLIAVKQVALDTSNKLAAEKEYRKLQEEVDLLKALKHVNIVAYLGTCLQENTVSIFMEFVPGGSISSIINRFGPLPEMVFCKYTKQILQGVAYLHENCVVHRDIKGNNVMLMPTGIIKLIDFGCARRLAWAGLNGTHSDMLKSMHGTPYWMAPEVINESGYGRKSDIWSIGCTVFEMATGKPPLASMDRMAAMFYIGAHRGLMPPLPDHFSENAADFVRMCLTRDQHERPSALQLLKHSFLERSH
Experimental: as §1, §2

Chain of CAMK2G (Q13555 whole entry): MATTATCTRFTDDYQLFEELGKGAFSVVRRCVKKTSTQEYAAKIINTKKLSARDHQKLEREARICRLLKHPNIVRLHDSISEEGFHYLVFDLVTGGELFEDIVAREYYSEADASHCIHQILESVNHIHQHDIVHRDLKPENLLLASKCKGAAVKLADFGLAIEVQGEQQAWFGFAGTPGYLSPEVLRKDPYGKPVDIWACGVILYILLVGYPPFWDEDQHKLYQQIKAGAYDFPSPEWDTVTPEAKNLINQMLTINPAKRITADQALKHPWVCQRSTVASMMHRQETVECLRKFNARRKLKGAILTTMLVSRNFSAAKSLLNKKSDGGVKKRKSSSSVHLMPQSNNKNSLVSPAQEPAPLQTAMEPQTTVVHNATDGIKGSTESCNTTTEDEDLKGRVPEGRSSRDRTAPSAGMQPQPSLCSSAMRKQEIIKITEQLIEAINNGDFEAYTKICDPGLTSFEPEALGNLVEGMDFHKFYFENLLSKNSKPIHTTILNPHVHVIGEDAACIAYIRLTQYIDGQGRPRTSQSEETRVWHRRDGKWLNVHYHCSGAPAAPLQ
Chain of CAMKK1 (Q8N5S9 whole entry): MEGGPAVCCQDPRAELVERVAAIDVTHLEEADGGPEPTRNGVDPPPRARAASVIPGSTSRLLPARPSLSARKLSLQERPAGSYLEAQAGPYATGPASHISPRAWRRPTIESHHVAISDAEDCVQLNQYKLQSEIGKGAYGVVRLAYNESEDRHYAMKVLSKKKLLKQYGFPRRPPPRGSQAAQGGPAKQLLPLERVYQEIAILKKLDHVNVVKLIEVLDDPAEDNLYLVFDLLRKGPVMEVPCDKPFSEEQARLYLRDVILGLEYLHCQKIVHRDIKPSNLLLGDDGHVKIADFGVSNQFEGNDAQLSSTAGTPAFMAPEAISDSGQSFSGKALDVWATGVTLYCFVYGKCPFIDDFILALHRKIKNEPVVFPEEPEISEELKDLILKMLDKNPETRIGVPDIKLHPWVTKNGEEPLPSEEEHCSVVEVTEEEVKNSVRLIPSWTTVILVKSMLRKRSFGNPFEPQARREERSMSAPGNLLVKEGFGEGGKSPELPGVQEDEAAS

SMILES | Kd [1] [µM] | Kd [2] [µM] | Kd [3] [µM] | Kd [4] [µM]
Nc1nc2c(-c3cnc4ccccc4c3)nccc2[nH]1 [drawing 36, 4-(quinolin-3-yl)-1H-imidazo[4,5-c]pyridin-2-amine] | > 30 |  |  | 
Nc1nc2c(-c3ccccn3)nccc2[nH]1 [drawing 35, 4-(pyrid-2-yl)-1H-imidazo[4,5-c]pyridin-2-amine] |  | > 30 | > 30 | 0.22
